Measurements taken from patent publication US20200085839A1, “COMBINATION OF IMMUNOTHERAPEUTICS AND BISFLUOROALKYL-1,4-BENZODIAZEPINONE COMPOUNDS FOR TREATING LYMPHOMAS” (Ayala Pharmaceuticals Inc., priority 2018, published 2020).
pEC50: −log10 of the molar value.

Columns and labels:
Experiment in all cases: Soluble (shed) BCMA by ELISA
Type in all cases: cell-based, human
[1] = tested on: EB-3 cells (Burkitt's Lymphoma)
Method: (§1) […] cell lines, comprising 9 subtypes of lymphomas (see Table 1), were seeded at 1×10^5 cells/well in a total volume of 250 μl into a 96-well plate. The cells were cultured in RPMI medium supplemented with 10% FCS. Compound (22) was added to the cell cultures at a concentration of 10 μM, 1 μM, 100 nM, 10 nM, 1 nM, 100 pM, 10 pM, 1 pM, and 100 fM, and cell lines (8 from Hadassah Medical Center, 31 from Eurofins) were incubated at 37° C. for 24 hours with Compound (22). Following incubation, the cells were collected and BCMA levels were evaluated on the cell surface for cell-bound BCMA. Cells were stained with an anti-BCMA antibody (PE anti-human 19F2 BCMA, Biolegend), and cell surface BCMA levels were determined by FACS analysis (Mean Fluorescence Intensity. Soluble BCMA levels were analyzed by ELISA (Human BCMA/TNFRSF17 DuoSet kit: R&D Systems).

[2] = tested on: SR cells (Anaplastic Large Cell Lymphoma)
Method: as §1

[3] = tested on: Raji cells (Burkitt's Lymphoma)
Method: as §1

[4] = tested on: Daudi cells (Burkitt's Lymphoma)
Method: as §1

[5] = tested on: CA46 cells (Burkitt's Lymphoma)
Method: as §1

HT cells (DLBCL) = tested on: HT cells (DLBCL)
Method: as §1

[6] = tested on: Namalwa cells (Burkitt's Lymphoma)
Method: as §1

[7] = tested on: Ramos cells (Burkitt's Lymphoma)
Method: as §1

[8] = tested on: Jiyoye cells (Burkitt's Lymphoma)
Method: as §1

[9] = tested on: REC-1 cells (Mantle Cell Lymphoma)
Method: as §1

[10] = tested on: MC-116 cells (B-cell Lymphoma)
Method: as §1

[11] = tested on: TUR cells (Histiocytic Lymphoma)
Method: as §1

[12] = tested on: BCP-1 cells (B-cell Lymphoma)
Method: as §1

[13] = tested on: MHHH-PREB-1 cells (B-cell Lymphoma)
Method: as §1

[14] = tested on: NU-DUL-1 cells (B-cell Lymphoma)
Method: as §1

ST486 cells (DLBCL) = tested on: ST486 cells (DLBCL)
Method: as §1

DB cells (DLBCL) = tested on: DB cells (DLBCL)
Method: as §1

[15] = tested on: BC-1 cells (B-cell Lymphoma)
Method: as §1

[16] = tested on: CRO-AP2 cells (B-cell Lymphoma)
Method: as §1

DOHH-2 cells (DLBCL) = tested on: DOHH-2 cells (DLBCL)
Method: as §1

SUDHL-10 cells (DLBCL) = tested on: SUDHL-10 cells (DLBCL)
Method: as §1

[17] = Homo sapiens, read-out: Shed BCMA (pg/ml) EC50

Cc1cccc2c1NC(=O)[C@@H](NC(=O)[C@H](CCC(F)(F)F)[C@H](CCC(F)(F)F)C(N)=O)N=C2c1cccc(F)c1 [Compound (22), (2R,3S)—N-((3S)-5-(3-fluorophenyl)-9-methyl-2-oxo-2,3-dihydro-1H-1,4-benzodiazepin-3-yl)-2,3-bis(3,3,3-trifluoropropyl)succinamide]
Shed BCMA (pg/ml) % Reduction [1]: BLQ | pEC50 [1, 17]: < 5.00 | Shed BCMA (pg/ml) % Reduction [2]: BLQ | pEC50 [2, 17]: < 5.00 | Shed BCMA (pg/ml) % Reduction [3]: 99% | soluble BCMA 1 nM Compound (22) ([3]; 1 nM, 24 h): 81.4 | soluble BCMA 10 nM Compound (22) ([3]; 10 nM, 24 h): 29.7 | soluble BCMA 100 nM Compound (22) ([3]; 100 nM, 24 h): 26.3 | pEC50 [3, 17]: 9.52 | Shed BCMA (pg/ml) % Reduction [4]: 100% | soluble BCMA 1 nM Compound (22) ([4]; 1 nM, 24 h): 162.6 | soluble BCMA 10 nM Compound (22) ([4]; 10 nM, 24 h): 36.8 | soluble BCMA ([4]; FIG. 7B): decreased soluble BCMA | pEC50 [4, 17]: 9.30 | Shed BCMA (pg/ml) % Reduction ([5]; CA46): 90% | soluble BCMA 1 nM Compound (22) ([5]; CA-46, 1 nM, 24 h): 1775.4 | soluble BCMA 10 nM Compound (22) ([5]; CA-46, 10 nM, 24 h): 330 | soluble BCMA 100 nM Compound (22) ([5]; CA-46, 100 nM, 24 h): 173.2 | pEC50 ([5]; Homo sapiens, CA46, read-out: Shed BCMA (pg/ml) EC50): 8.13 | Shed BCMA (pg/ml) % Reduction (HT cells (DLBCL)): 98% | soluble BCMA 1 nM Compound (22) (HT cells (DLBCL); 1 nM, 24 h): 389.4 | soluble BCMA 10 nM Compound (22) (HT cells (DLBCL); 10 nM, 24 h): 99.4 | soluble BCMA 100 nM Compound (22) (HT cells (DLBCL); 100 nM, 24 h): 38 | pEC50 (HT cells (DLBCL); [17]): 9.00 | pEC50 ([6]; Homo sapiens, Namalwa, read-out: Shed BCMA (pg/ml) EC50): 9.22 | soluble BCMA 10 nM Compound (22) ([6]; NAMALWA, 10 nM, 24 h): 66.6 | Shed BCMA (pg/ml) % Reduction ([6]; Namalwa): 95% | soluble BCMA 1 nM Compound (22) ([6]; Namalwa, 1 nM, 24 h): 87.5 | soluble BCMA 100 nM Compound (22) ([6]; Namalwa, 100 nM, 24 h): 67.4 | Shed BCMA (pg/ml) % Reduction [7]: 76% | soluble BCMA 1 nM Compound (22) ([7]; 1 nM, 24 h): >2000 | soluble BCMA 10 nM Compound (22) ([7]; 10 nM, 24 h): 613.3 | soluble BCMA 100 nM Compound (22) ([7]; 100 nM, 24 h): 504.3 | pEC50 [7, 17]: 8.07 | pEC50 ([8]; Homo sapiens, JIYOYE, read-out: Shed BCMA (pg/ml) EC50): 8.64 | soluble BCMA 10 nM Compound (22) ([8]; JIYOYE, 10 nM, 24 h): 472.3 | Shed BCMA (pg/ml) % Reduction ([8]; Jiyoye): 81% | soluble BCMA 1 nM Compound (22) ([8]; Jiyoye, 1 nM, 24 h): 1707.7 | soluble BCMA 100 nM Compound (22) ([8]; Jiyoye, 100 nM, 24 h): 373.1 | soluble BCMA ([8]; Jiyoye, FIG. 8B): decreased soluble BCMA | Shed BCMA (pg/ml) % Reduction [9]: BLQ | pEC50 ([9]; Homo sapiens, Rec1, read-out: Shed BCMA (pg/ml) EC50): < 5.00 | pEC50 ([10]; Homo sapiens, MC116, MC-116, read-out: Shed BCMA (pg/ml) EC50): 8.19 | soluble BCMA 1 nM Compound (22) ([10]; MC116, 1 nM, 24 h): 1810.6 | soluble BCMA 10 nM Compound (22) ([10]; MC116, 10 nM, 24 h): 414.8 | soluble BCMA 100 nM Compound (22) ([10]; MC116, 100 nM, 24 h): 303.7 | Shed BCMA (pg/ml) % Reduction ([10]; MC-116): 76% | Shed BCMA (pg/ml) % Reduction [11]: BLQ | pEC50 [11, 17]: < 5.00 | Shed BCMA (pg/ml) % Reduction [12]: 94% | soluble BCMA 1 nM Compound (22) ([12]; 1 nM, 24 h): 1665.7 | soluble BCMA 10 nM Compound (22) ([12]; 10 nM, 24 h): 1610 pg/mL | soluble BCMA 100 nM Compound (22) ([12]; 100 nM, 24 h): 460.6 | soluble BCMA ([12]; FIG. 6B): decreased soluble BCMA | pEC50 [12, 17]: 7.32 | Shed BCMA (pg/ml) % Reduction [13]: 97% | soluble BCMA 1 nM Compound (22) ([13]; 1 nM, 24 h): 227.3 | soluble BCMA 10 nM Compound (22) ([13]; 10 nM, 24 h): 75.4 | soluble BCMA 100 nM Compound (22) ([13]; 100 nM, 24 h): 60.1 | pEC50 ([13]; Homo sapiens, B-cell, read-out: Shed BCMA (pg/ml) EC50): 9.22 | Shed BCMA (pg/ml) % Reduction [14]: 91% | pEC50 [14, 17]: 9.00 | Shed BCMA (pg/ml) % Reduction (ST486 cells (DLBCL)): 90% | pEC50 (ST486 cells (DLBCL); [17]): 9.05 | Shed BCMA (pg/ml) % Reduction (DB cells (DLBCL)): 100% | soluble BCMA 1 nM Compound (22) (DB cells (DLBCL); 1 nM, 24 h): 270.5 | soluble BCMA 10 nM Compound (22) (DB cells (DLBCL); 10 nM, 24 h): 40.5 | soluble BCMA (DB cells (DLBCL); FIG. 9B): decreased soluble BCMA | pEC50 (DB cells (DLBCL); [17]): 9.00 | Shed BCMA (pg/ml) % Reduction [15]: 30% | soluble BCMA 1 nM Compound (22) ([15]; 1 nM, 24 h): >2000 | soluble BCMA 10 nM Compound (22) ([15]; 10 nM, 24 h): 1841.6 | soluble BCMA 100 nM Compound (22) ([15]; 100 nM, 24 h): 878.6 | pEC50 ([15]; Homo sapiens, BC1, read-out: Shed BCMA (pg/ml) EC50): 7.08 | Shed BCMA (pg/ml) % Reduction [16]: 91% | soluble BCMA 1 nM Compound (22) ([16]; 1 nM, 24 h): 1895.3 | soluble BCMA 10 nM Compound (22) ([16]; 10 nM, 24 h): 409.5 | soluble BCMA 100 nM Compound (22) ([16]; 100 nM, 24 h): 126.1 | pEC50 [16, 17]: 8.32 | Shed BCMA (pg/ml) % Reduction (DOHH-2 cells (DLBCL)): 93% | soluble BCMA 1 nM Compound (22) (DOHH-2 cells (DLBCL); 1 nM, 24 h): 1272.1 | soluble BCMA 10 nM Compound (22) (DOHH-2 cells (DLBCL); 10 nM, 24 h): 136 | soluble BCMA 100 nM Compound (22) (DOHH-2 cells (DLBCL); 100 nM, 24 h): 98.4 | pEC50 (DOHH-2 cells (DLBCL); [17]): 8.66 | Shed BCMA (pg/ml) % Reduction (SUDHL-10 cells (DLBCL)): 97% | pEC50 (SUDHL-10 cells (DLBCL); Homo sapiens, SU-DHL10, read-out: Shed BCMA (pg/ml) EC50): 9.05
